Tested on: HT-29
Test: Cytotoxicity against human HT-29 cells after 96 hrs by SRB assay
Assay type: functional, cell-based
Conditions: HT-29, 96 h

Compound	EC50 [µM]
C[C@H]1[C@H](C)CC[C@]2(C(=O)NO)CC[C@]3(C)C(=CC[C@@H]4[C@@]5(C)CC[C@H](O)C(C)(C)[C@@H]5CC[C@]43C)[C@H]12	7.5
CC1(C)CC[C@]2(C(=O)NO)CC[C@]3(C)C(=CC[C@@H]4[C@@]5(C)CC[C@H](O)C(C)(C)[C@@H]5CC[C@]43C)[C@@H]2C1	4.7
CONC(=O)[C@]12CCC(C)(C)C[C@H]1C1=CC[C@@H]3[C@@]4(C)CC[C@H](OC(C)=O)C(C)(C)[C@@H]4CC[C@@]3(C)[C@]1(C)CC2	17.5
C[C@H]1[C@H](C)CC[C@]2(C(=O)N(C)O)CC[C@]3(C)C(=CC[C@@H]4[C@@]5(C)CC[C@H](O)C(C)(C)[C@@H]5CC[C@]43C)[C@H]12	12.3
CONC(=O)[C@]12CC[C@@H](C)[C@H](C)[C@H]1C1=CC[C@@H]3[C@@]4(C)CC[C@H](OC(C)=O)C(C)(C)[C@@H]4CC[C@@]3(C)[C@]1(C)CC2	13.2
CN(O)C(=O)[C@]12CCC(C)(C)C[C@H]1C1=CC[C@@H]3[C@@]4(C)CC[C@H](O)C(C)(C)[C@@H]4CC[C@@]3(C)[C@]1(C)CC2	8.7

Tested on: FaDu
Test: Cytotoxicity against human FADU cells after 96 hrs by SRB assay
Assay type: functional, cell-based
Conditions: not given

Compound	EC50 [µM]
C[C@H]1[C@H](C)CC[C@]2(C(=O)NO)CC[C@]3(C)C(=CC[C@@H]4[C@@]5(C)CC[C@H](O)C(C)(C)[C@@H]5CC[C@]43C)[C@H]12	18.1
CC1(C)CC[C@]2(C(=O)NO)CC[C@]3(C)C(=CC[C@@H]4[C@@]5(C)CC[C@H](O)C(C)(C)[C@@H]5CC[C@]43C)[C@@H]2C1	8.2
CONC(=O)[C@]12CCC(C)(C)C[C@H]1C1=CC[C@@H]3[C@@]4(C)CC[C@H](OC(C)=O)C(C)(C)[C@@H]4CC[C@@]3(C)[C@]1(C)CC2	12.3
C[C@H]1[C@H](C)CC[C@]2(C(=O)N(C)O)CC[C@]3(C)C(=CC[C@@H]4[C@@]5(C)CC[C@H](O)C(C)(C)[C@@H]5CC[C@]43C)[C@H]12	15.1
CONC(=O)[C@]12CC[C@@H](C)[C@H](C)[C@H]1C1=CC[C@@H]3[C@@]4(C)CC[C@H](OC(C)=O)C(C)(C)[C@@H]4CC[C@@]3(C)[C@]1(C)CC2	12.1
CN(O)C(=O)[C@]12CCC(C)(C)C[C@H]1C1=CC[C@@H]3[C@@]4(C)CC[C@H](O)C(C)(C)[C@@H]4CC[C@@]3(C)[C@]1(C)CC2	5.8

Tested on: A2780
Test: Cytotoxicity against human A2780 cells after 96 hrs by SRB assay
Assay type: functional, cell-based
Conditions: A2780, 96 h

Compound	EC50 [µM]
C[C@H]1[C@H](C)CC[C@]2(C(=O)NO)CC[C@]3(C)C(=CC[C@@H]4[C@@]5(C)CC[C@H](O)C(C)(C)[C@@H]5CC[C@]43C)[C@H]12	4.6
CC1(C)CC[C@]2(C(=O)NO)CC[C@]3(C)C(=CC[C@@H]4[C@@]5(C)CC[C@H](O)C(C)(C)[C@@H]5CC[C@]43C)[C@@H]2C1	3.4
CONC(=O)[C@]12CCC(C)(C)C[C@H]1C1=CC[C@@H]3[C@@]4(C)CC[C@H](OC(C)=O)C(C)(C)[C@@H]4CC[C@@]3(C)[C@]1(C)CC2	10.8
C[C@H]1[C@H](C)CC[C@]2(C(=O)N(C)O)CC[C@]3(C)C(=CC[C@@H]4[C@@]5(C)CC[C@H](O)C(C)(C)[C@@H]5CC[C@]43C)[C@H]12	4.5
CONC(=O)[C@]12CC[C@@H](C)[C@H](C)[C@H]1C1=CC[C@@H]3[C@@]4(C)CC[C@H](OC(C)=O)C(C)(C)[C@@H]4CC[C@@]3(C)[C@]1(C)CC2	10.6
CN(O)C(=O)[C@]12CCC(C)(C)C[C@H]1C1=CC[C@@H]3[C@@]4(C)CC[C@H](O)C(C)(C)[C@@H]4CC[C@@]3(C)[C@]1(C)CC2	3.9

Tested on: A549
Test: Cytotoxicity against human A549 cells after 96 hrs by SRB assay
Assay type: functional, cell-based
Conditions: A549, 96 h

Compound	EC50 [µM]
C[C@H]1[C@H](C)CC[C@]2(C(=O)NO)CC[C@]3(C)C(=CC[C@@H]4[C@@]5(C)CC[C@H](O)C(C)(C)[C@@H]5CC[C@]43C)[C@H]12	6.7
CC1(C)CC[C@]2(C(=O)NO)CC[C@]3(C)C(=CC[C@@H]4[C@@]5(C)CC[C@H](O)C(C)(C)[C@@H]5CC[C@]43C)[C@@H]2C1	4.7
CONC(=O)[C@]12CCC(C)(C)C[C@H]1C1=CC[C@@H]3[C@@]4(C)CC[C@H](OC(C)=O)C(C)(C)[C@@H]4CC[C@@]3(C)[C@]1(C)CC2	18.6
C[C@H]1[C@H](C)CC[C@]2(C(=O)N(C)O)CC[C@]3(C)C(=CC[C@@H]4[C@@]5(C)CC[C@H](O)C(C)(C)[C@@H]5CC[C@]43C)[C@H]12	9.7
CONC(=O)[C@]12CC[C@@H](C)[C@H](C)[C@H]1C1=CC[C@@H]3[C@@]4(C)CC[C@H](OC(C)=O)C(C)(C)[C@@H]4CC[C@@]3(C)[C@]1(C)CC2	6.6
CN(O)C(=O)[C@]12CCC(C)(C)C[C@H]1C1=CC[C@@H]3[C@@]4(C)CC[C@H](O)C(C)(C)[C@@H]4CC[C@@]3(C)[C@]1(C)CC2	9.8

Tested on: MCF7
Test: Cytotoxicity against human MCF7 cells after 96 hrs by SRB assay
Assay type: functional, cell-based
Conditions: MCF7, 96 h

Compound	EC50 [µM]
C[C@H]1[C@H](C)CC[C@]2(C(=O)NO)CC[C@]3(C)C(=CC[C@@H]4[C@@]5(C)CC[C@H](O)C(C)(C)[C@@H]5CC[C@]43C)[C@H]12	13.1
CC1(C)CC[C@]2(C(=O)NO)CC[C@]3(C)C(=CC[C@@H]4[C@@]5(C)CC[C@H](O)C(C)(C)[C@@H]5CC[C@]43C)[C@@H]2C1	8.2
CONC(=O)[C@]12CCC(C)(C)C[C@H]1C1=CC[C@@H]3[C@@]4(C)CC[C@H](OC(C)=O)C(C)(C)[C@@H]4CC[C@@]3(C)[C@]1(C)CC2	9.1
C[C@H]1[C@H](C)CC[C@]2(C(=O)N(C)O)CC[C@]3(C)C(=CC[C@@H]4[C@@]5(C)CC[C@H](O)C(C)(C)[C@@H]5CC[C@]43C)[C@H]12	15.4
CONC(=O)[C@]12CC[C@@H](C)[C@H](C)[C@H]1C1=CC[C@@H]3[C@@]4(C)CC[C@H](OC(C)=O)C(C)(C)[C@@H]4CC[C@@]3(C)[C@]1(C)CC2	6.8
CN(O)C(=O)[C@]12CCC(C)(C)C[C@H]1C1=CC[C@@H]3[C@@]4(C)CC[C@H](O)C(C)(C)[C@@H]4CC[C@@]3(C)[C@]1(C)CC2	8.3

Tested on: not listed separately
Test: Cytotoxicity against human 518A2 cells after 96 hrs by SRB assay
Assay type: functional, cell-based
Conditions: 518A2, 96 h

Compound	EC50 [µM]
C[C@H]1[C@H](C)CC[C@]2(C(=O)NO)CC[C@]3(C)C(=CC[C@@H]4[C@@]5(C)CC[C@H](O)C(C)(C)[C@@H]5CC[C@]43C)[C@H]12	9.4
CC1(C)CC[C@]2(C(=O)NO)CC[C@]3(C)C(=CC[C@@H]4[C@@]5(C)CC[C@H](O)C(C)(C)[C@@H]5CC[C@]43C)[C@@H]2C1	5.5
CONC(=O)[C@]12CCC(C)(C)C[C@H]1C1=CC[C@@H]3[C@@]4(C)CC[C@H](OC(C)=O)C(C)(C)[C@@H]4CC[C@@]3(C)[C@]1(C)CC2	14.2
C[C@H]1[C@H](C)CC[C@]2(C(=O)N(C)O)CC[C@]3(C)C(=CC[C@@H]4[C@@]5(C)CC[C@H](O)C(C)(C)[C@@H]5CC[C@]43C)[C@H]12	12.5
CONC(=O)[C@]12CC[C@@H](C)[C@H](C)[C@H]1C1=CC[C@@H]3[C@@]4(C)CC[C@H](OC(C)=O)C(C)(C)[C@@H]4CC[C@@]3(C)[C@]1(C)CC2	15.5
CN(O)C(=O)[C@]12CCC(C)(C)C[C@H]1C1=CC[C@@H]3[C@@]4(C)CC[C@H](O)C(C)(C)[C@@H]4CC[C@@]3(C)[C@]1(C)CC2	11.6

Tested on: not listed separately
Test: Cytotoxicity against mouse NIH/3T3 cells after 96 hrs by SRB assay
Assay type: cell-based
Conditions: NIH3T3, 96 h

Compound	EC50 [µM]
C[C@H]1[C@H](C)CC[C@]2(C(=O)NO)CC[C@]3(C)C(=CC[C@@H]4[C@@]5(C)CC[C@H](O)C(C)(C)[C@@H]5CC[C@]43C)[C@H]12	5.5
CC1(C)CC[C@]2(C(=O)NO)CC[C@]3(C)C(=CC[C@@H]4[C@@]5(C)CC[C@H](O)C(C)(C)[C@@H]5CC[C@]43C)[C@@H]2C1	4.3
CONC(=O)[C@]12CCC(C)(C)C[C@H]1C1=CC[C@@H]3[C@@]4(C)CC[C@H](OC(C)=O)C(C)(C)[C@@H]4CC[C@@]3(C)[C@]1(C)CC2	13.2
C[C@H]1[C@H](C)CC[C@]2(C(=O)N(C)O)CC[C@]3(C)C(=CC[C@@H]4[C@@]5(C)CC[C@H](O)C(C)(C)[C@@H]5CC[C@]43C)[C@H]12	10.1
CONC(=O)[C@]12CC[C@@H](C)[C@H](C)[C@H]1C1=CC[C@@H]3[C@@]4(C)CC[C@H](OC(C)=O)C(C)(C)[C@@H]4CC[C@@]3(C)[C@]1(C)CC2	14.8
CN(O)C(=O)[C@]12CCC(C)(C)C[C@H]1C1=CC[C@@H]3[C@@]4(C)CC[C@H](O)C(C)(C)[C@@H]4CC[C@@]3(C)[C@]1(C)CC2	11.1
